Results taken from PubChem BioAssay AID210 (DTP/NCI, 2004).
Toxic doses and inconclusive results are not listed. The calls were made as follows: active = survival T/C of 150% or more; inactive = T/C below 125% in these data.

Test system: CD2F1 mice, ip Colon 26 adenocarcinoma, median survival T/C
Assay: NCI In Vivo Anticancer Drug Screen. Data for tumor model Colon 26 Adenocarcinoma (intraperitoneal) in CD2F1 (CDF1) mice
Details: endpoint: median survival time, higher = longer survival
Experimental: The antitumor activity of compounds was measured in mice bearing transplantable tumors. Survival or tumor size were measured and the results are expressed as the measurement made in the treated group (T) divided by the measurement made in the vehicle treated control group (C). The tumor model used in this assay is Colon 26 Adenocarcinoma (intraperitoneal) in CD2F1 (CDF1) mice

[1] = dose: 12.5 mg/kg/injection, schedule: Q04DX003 (ip), vehicle: saline with Tween-80
[2] = dose: 32.0 mg/kg/injection, schedule: Q04DX003 (ip), vehicle: saline
[3] = dose: 64.0 mg/kg/injection, schedule: Q04DX003 (ip), vehicle: saline
[4] = dose: 12.5 mg/kg/injection, schedule: Q04DX003 (ip), vehicle: saline

Measured: T/C

Cc1ccc(S(=O)(=O)N/N=C/C(=O)O)cc1
active: [1] 174 % of control | dose: 25.0 mg/kg/injection, schedule: Q04DX003 (ip), vehicle: saline with Tween-80 177 % of control | dose: 50.0 mg/kg/injection, schedule: Q04DX003 (ip), vehicle: saline with Tween-80 212 % of control | dose: 100.0 mg/kg/injection, schedule: Q04DX003 (ip), vehicle: saline with Tween-80 196 % of control | dose: 200.0 mg/kg/injection, schedule: Q04DX003 (ip), vehicle: saline with Tween-80 193 % of control

Nc1nc([Se])c2ncn(C3OC(CO)C(O)C3O)c2n1 (configuration not stated)
inactive: dose: 4.0 mg/kg/injection, schedule: Q04DX003 (ip), vehicle: saline 114 % of control | dose: 4.0 mg/kg/injection, schedule: Q04DX003 (ip), vehicle: suspension in saline 116 % of control | dose: 8.0 mg/kg/injection, schedule: Q04DX003 (ip), vehicle: saline 104 % of control | dose: 8.0 mg/kg/injection, schedule: Q04DX003 (ip), vehicle: suspension in saline 106 % of control | dose: 16.0 mg/kg/injection, schedule: Q04DX003 (ip), vehicle: saline 109 % of control | dose: 16.0 mg/kg/injection, schedule: Q04DX003 (ip), vehicle: suspension in saline 114 % of control | [2] 111 % of control | dose: 32.0 mg/kg/injection, schedule: Q04DX003 (ip), vehicle: suspension in saline 116 % of control | [3] 121 % of control | dose: 64.0 mg/kg/injection, schedule: Q04DX003 (ip), vehicle: suspension in saline 114 % of control

CN(C)CCNc1cccc2c1C(=O)c1cccc(NCCN(C)C)c1C2=O
inactive: dose: 1.88 mg/kg/injection, schedule: Q01DX009 (ip), vehicle: saline 103 % of control | dose: 3.75 mg/kg/injection, schedule: Q01DX009 (ip), vehicle: saline 108 % of control | dose: 7.5 mg/kg/injection, schedule: Q01DX009 (ip), vehicle: saline 99 % of control | dose: 15.0 mg/kg/injection, schedule: Q01DX009 (ip), vehicle: saline 113 % of control

CCCCNC(C)[C@]1(O)Cc2c(O)c3c(c(O)c2[C@@H](OC2CC(N)C(O)C(C)O2)C1)C(=O)c1c(OC)cccc1C3=O (some centres not stated)
inactive: dose: 23.0 mg/kg/injection, schedule: Q07DX002 (iv), vehicle: saline 110 % of control | dose: 35.0 mg/kg/injection, schedule: Q07DX002 (iv), vehicle: saline 122 % of control | dose: 54.0 mg/kg/injection, schedule: Q07DX002 (iv), vehicle: saline 110 % of control | dose: 84.0 mg/kg/injection, schedule: Q07DX002 (iv), vehicle: saline 113 % of control

O=[N+]([O-])O.[Ga]
inactive: dose: 12.5 mg/kg/injection, schedule: Q01DX005 (ip), vehicle: saline 97 % of control | [4] 103 % of control | dose: 25.0 mg/kg/injection, schedule: Q01DX005 (ip), vehicle: saline 96 % of control | dose: 25.0 mg/kg/injection, schedule: Q04DX003 (ip), vehicle: saline 108 % of control | dose: 50.0 mg/kg/injection, schedule: Q01DX005 (ip), vehicle: saline 87 % of control | dose: 50.0 mg/kg/injection, schedule: Q04DX003 (ip), vehicle: saline 106 % of control | dose: 100.0 mg/kg/injection, schedule: Q04DX003 (ip), vehicle: saline 87 % of control

CC(=O)OCc1cc(=O)n(C)c2c3c4c(cc12)c(C)cc(=O)n4CO3
inactive: dose: 12.5 mg/kg/injection, schedule: Q04DX003 (ip), vehicle: Klucel (hydroxypropylcellulose) (HPC) 106 % of control | dose: 25.0 mg/kg/injection, schedule: Q04DX003 (ip), vehicle: Klucel (hydroxypropylcellulose) (HPC) 106 % of control | dose: 50.0 mg/kg/injection, schedule: Q04DX003 (ip), vehicle: Klucel (hydroxypropylcellulose) (HPC) 115 % of control | dose: 200.0 mg/kg/injection, schedule: Q04DX003 (ip), vehicle: Klucel (hydroxypropylcellulose) (HPC) 115 % of control

COc1cccc2c1C(=O)c1c(O)c3c(c(O)c1C2=O)C[C@@](O)(/C(CO)=N/NC(=O)c1ccc(Cl)c(Cl)c1)C[C@@H]3OC1CC(N)C(O)C(C)O1 (some centres not stated)
inactive: dose: 16.0 mg/kg/injection, schedule: Q07DX002 (iv), vehicle: saline 92 % of control | dose: 24.0 mg/kg/injection, schedule: Q07DX002 (iv), vehicle: saline 109 % of control | dose: 36.0 mg/kg/injection, schedule: Q07DX002 (iv), vehicle: saline 103 % of control

CC1(C(=O)O)C(O)CCC2(C)C1CCC1CC3CC12CCC3(O)CO (configuration not stated)
inactive: dose: 2.5 mg/kg/injection, schedule: Q04DX002 (ip), vehicle: saline with Tween-80 92 % of control | dose: 5.0 mg/kg/injection, schedule: Q04DX002 (ip), vehicle: saline with Tween-80 98 % of control | dose: 10.0 mg/kg/injection, schedule: Q04DX002 (ip), vehicle: saline with Tween-80 106 % of control | dose: 20.0 mg/kg/injection, schedule: Q04DX002 (ip), vehicle: saline with Tween-80 95 % of control | dose: 40.0 mg/kg/injection, schedule: Q04DX002 (ip), vehicle: saline with Tween-80 100 % of control | dose: 80.0 mg/kg/injection, schedule: Q04DX002 (ip), vehicle: saline with Tween-80 101 % of control | dose: 100.0 mg/kg/injection, schedule: Q04DX002 (ip), vehicle: distilled water + Tween-80 94 % of control | dose: 200.0 mg/kg/injection, schedule: Q04DX002 (ip), vehicle: distilled water + Tween-80 97 % of control

C=CC(=O)N1CN(C(=O)C=C)CN(C(=O)C=C)C1
inactive: dose: 3.13 mg/kg/injection, schedule: Q04DX003 (ip), vehicle: saline with Tween-80 115 % of control | dose: 6.25 mg/kg/injection, schedule: Q04DX003 (ip), vehicle: saline with Tween-80 110 % of control | [1] 106 % of control | [4] 122 % of control

COC1=CC(=O)N(C(=O)C2CSC(C(CO)NC(=O)c3csc(/C=N/O)n3)=N2)C1 (configuration not stated)
inactive: dose: 50.0 mg/kg/injection, schedule: Q04DX002 (ip), vehicle: Klucel (hydroxypropylcellulose) (HPC) 93 % of control | dose: 100.0 mg/kg/injection, schedule: Q04DX002 (ip), vehicle: Klucel (hydroxypropylcellulose) (HPC) 105 % of control | dose: 200.0 mg/kg/injection, schedule: Q04DX002 (ip), vehicle: Klucel (hydroxypropylcellulose) (HPC) 101 % of control | dose: 400.0 mg/kg/injection, schedule: Q04DX002 (ip), vehicle: Klucel (hydroxypropylcellulose) (HPC) 105 % of control

COC(=O)[C@@]12OC[C@]34[C@H]([C@@H](O)[C@@H]1O)[C@@]1(C)CC(=O)C(O)=C(C)[C@@H]1C[C@H]3OC(=O)[C@H](OC(=O)/C=C(\C)C(C)C)[C@@H]24
inactive: dose: 0.66 mg/kg/injection, schedule: Q04DX003 (iv), vehicle: saline with Tween-80 97 % of control | dose: 1.0 mg/kg/injection, schedule: Q04DX003 (iv), vehicle: saline with Tween-80 94 % of control | dose: 1.5 mg/kg/injection, schedule: Q04DX003 (iv), vehicle: saline with Tween-80 94 % of control | dose: 2.3 mg/kg/injection, schedule: Q04DX003 (iv), vehicle: saline with Tween-80 92 % of control | dose: 3.5 mg/kg/injection, schedule: Q04DX003 (iv), vehicle: saline with Tween-80 96 % of control

COc1cccc2c1C(=O)c1c(O)c3c(c(O)c1C2=O)C[C@@](O)(/C(C)=N\NC(=O)CO)C[C@@H]3OC1CC(N)C(O)C(C)O1 (some centres not stated)
inactive: dose: 4.5 mg/kg/injection, schedule: Q07DX003 (iv), vehicle: other 104 % of control | dose: 7.0 mg/kg/injection, schedule: Q07DX003 (iv), vehicle: other 101 % of control | dose: 11.0 mg/kg/injection, schedule: Q07DX003 (iv), vehicle: other 108 % of control | dose: 17.0 mg/kg/injection, schedule: Q07DX003 (iv), vehicle: other 104 % of control

COc1c(O)c2c(c3cc(C(=O)N4CCc5c4c(O)c(OC)c4[nH]c(C(=O)N6CC7CC78C6=CC(=O)c6[nH]cc(C)c68)cc54)[nH]c13)CCN2C(N)=O (configuration not stated)
inactive: dose: 6.3 micrograms/kg/injection, schedule: Q01DX009 (ip), vehicle: saline 104 % of control | dose: 12.5 micrograms/kg/injection, schedule: Q01DX009 (ip), vehicle: saline 99 % of control | dose: 25.0 micrograms/kg/injection, schedule: Q01DX009 (ip), vehicle: saline 115 % of control | dose: 100.0 micrograms/kg/injection, schedule: Q01DX009 (ip), vehicle: saline 123 % of control
active: dose: 50.0 micrograms/kg/injection, schedule: Q01DX009 (ip), vehicle: saline 150 % of control

COc1cc([C@@H]2c3cc4c(cc3[C@@H](OC3OC5COC(C)OC5C(O)C3O)[C@H]3COC(=O)[C@H]23)OCO4)cc(OC)c1O (some centres not stated)
active: [2] 151 % of control | [3] 193 % of control
inactive: dose: 25.0 mg/kg/injection, schedule: Q03DX002 (ip), vehicle: other 103 % of control | dose: 40.0 mg/kg/injection, schedule: Q03DX002 (ip), vehicle: other 120 % of control | dose: 60.0 mg/kg/injection, schedule: Q03DX002 (ip), vehicle: other 107 % of control
